Experimental findings from a melting point compilation (Tetko et al.; mined from patent text by program, amines drawn as free bases though some values may be those of a salt) are described below.

Molecules are shown by their SMILES. Where only a bound is given, the exact number is not on record here.

For the compound `CN1Cc2ccccc2C(=O)c2cc(CC(=O)NO)ccc21`, the melting point lay within 137 to 141 °C.

Regarding `NN(C(=O)c1c(F)cccc1Cl)c1ccccc1C(F)(F)F`, the melting point lay in the range of 147 to 148 °C. On to `CC(C)(C)OC(=O)N1CCc2c(n(CCO)c3ccc(Cl)c(Cl)c23)CC1`, for which the melting point fell in the range of 174 to 176 °C. `CC(C)(C)c1ccc2c(c1)C(C(=O)O)=Cc1ccccc1O2` returned a melting point of 72 °C. Consider `COc1ccc2c(c1)c(Cc1cc(=O)n(-c3cc(C)cc(C)c3)[nH]1)c(C)n2C(=O)c1ccc(Cl)cc1`, for which the melting point fell in the range of 77.5 to 79 °C. The result for `COc1ccc2cc(N)cc(C)c2n1` reads 115 to 117 °C; that for `CCOCC1OC(n2cnc3c(N)ncnc32)C(O)C1O` (stereo not drawn), 110 to 112 °C. The result for `CCc1cccc(CC)c1NC(=S)NC(C)(C)CC` reads 85 to 87 °C.

Consider `CC(C)Oc1cc(NC(=O)C2=C(C(=O)N(C)C)CCCC2)ccc1Br`, for which the melting point lay in the range of 137 to 138 °C.

`[N-]=[N+]=CC(=O)[C@H](O)[C@@H](O)[C@@H](O)CO` registered a melting point of 93 to 94 °C. Compound `N=C(NO)c1cnc(Cl)c(Cl)c1` had a melting point of 182 to 184 °C. On to `O=C(OCCCCCCCCCCCCBr)C1CC1`, for which the melting point was 29 to 31 °C.

As for `CCCCCCCCCCCOCCCN=C=O`, the melting point fell in the range of 72 to 78 °C. For `Nc1nc(N)nc(-c2ccc3c(c2)OCCO3)n1`, the melting point lay in the range of 241 to 244 °C.

In the case of `CCOC(=O)c1c2ccc(Cl)cc2c(-c2ccccc2)n1CCCN(CC)C(C)=O`, the melting point fell in the range of 102 to 104 °C. For `CCOc1sc(C)nc1S(N)(=O)=O` the value was 118 to 120 °C; for `CC(C)(Cn1c(CCO)nc2c(N)nc3ccccc3c21)NS(C)(=O)=O`, 209 to 212 °C. The result for `CC1(C)CCCC(C)(C)N1CCO` reads 93 to 94 °C; that for `CC(C)(CC(=O)O)c1ccccc1SSc1ccccn1`, 122 to 125 °C.

In turn, `COc1cc(NC2=NCC(c3ccccc3)O2)ccc1-c1cnco1` (stereo not drawn) registered a melting point of 130 to 132 °C.

Compound `S=C1CN=C(c2ccccn2)c2cc(Cl)ccc2N1` had a melting point of 217 to 218 °C.

As for `CC(C)(C)OC(=O)NCc1cccc(OCCC2Oc3ccccc3N(Cc3ccccc3Cl)C2=O)c1` (stereo not drawn), the melting point is 115 to 116 °C.

In turn, `CCC(C(C)=CC(CNC(=O)c1cc(C)n[nH]1)=NO)[N+](=O)[O-]` (stereo not drawn) showed a melting point of 188 to 189 °C. `OCCCNc1cc(-n2cccn2)nc(-c2cccs2)n1` showed a melting point of 130 to 131 °C. The result for `CCOC(=O)Nc1ccc(Cl)c(N)n1` reads 66 to 70 °C; that for `CC(=O)Oc1c(C(C)(C)C)cc(O)c(C=O)c1C(C)(C)C`, 79 °C; that for `CCSc1ccnc2sc(C(N)=O)c(N)c12`, 230 to 235 °C. On to `O=C(O)CCCCC(Cc1ccc(F)cc1)C(=O)O` (stereo not drawn), for which the melting point lay in the range of 80 to 81 °C. Regarding `CCCCCC(O)C=CC1C(O)CC(=O)C1CCCCCCC(=O)Oc1ccc(-c2cc(=S)ss2)cc1` (stereo not drawn), the melting point lay in the range of 101 to 105 °C. For `Cn1c(=O)cc(-c2cccc(Cl)c2)c2cc(C(O)c3cncn3Cc3ccc(C#N)cc3)ccc21` (stereo not drawn) the value was 150 °C; for `CC(C)(C)C(=O)c1c(CC(C)(C)C(=O)O)n(Cc2ccc(Cl)cc2)c2ccc(OCc3ccc4sccc4n3)cc12`, 193 to 194 °C.

Consider `Cc1nc(-n2ccc(COc3ccccc3)cc2=O)sc1C(=O)NCc1ccccc1`, for which the melting point was 175 to 177 °C.

`CC(C)n1nc(-c2sc(NC(=O)c3ccccc3C(F)(F)F)nc2-c2ccccc2)ccc1=O`: the melting point fell in the range of 219 to 220 °C.

`O=C(OCc1ccccc1)[C@H](Cc1ccccc1)NC(=O)N1CCOCC1` had a melting point of 85 to 87 °C. For `CCCCCCCCC=CCCCCCCCC(=O)OCCCCCCCCCC` the value was 70 °C; for `COc1ccc(NS(=O)(=O)c2sc3ccc(Cl)cc3c2C)cc1N1CCN(C(=O)OC(C)(C)C)CC1`, 100 to 103 °C. For `C=CCNC1=NS(=O)(=O)N=C1NCCSCc1ccc(CN(C)C)o1` the value was 83 to 86 °C; for `Oc1cc(Br)ccc1C12CC3CC(CC(C3)C1)C2`, 112 to 114 °C; for `Cc1cc(Oc2c(Cl)cc(C(F)(F)F)cc2Cl)nn1C(=O)NCc1ccccn1`, 121 to 123 °C. Compound `CC(C)(C)c1cc2c(c(-c3nc4ncccc4o3)c1)CCC2` yielded a melting point of 198 to 200 °C. With `CC(C)N1C(=O)NC(c2ccc3c(c2)OCCO3)c2cc3c(cc21)OCO3` (stereo not drawn), the melting point fell in the range of 185 to 187 °C. Regarding `O=c1oc(-c2ccc(OCCc3ccccc3)cc2)cc(O)c1SCCc1ccccc1`, the melting point lay in the range of 103 to 106 °C. Take `Clc1cc(Cl)c2nccc(Br)c2c1`: the melting point was in the range of 164 to 166 °C. The compound `COc1c(N2CCC(CN)C2)c(F)cc2c(=O)c(C(=O)O)cn(C3CC3)c12` (stereo not drawn) showed a melting point of 198 to 200 °C.

On to `Nc1nc2c(C(CC(=O)O)C3CCCCC3)c[nH]c2c(=O)[nH]1` (stereo not drawn), for which the melting point was more than 300 °C.

Compound `Cc1ccc(C2(O)c3ccccc3C(=O)c3ccccc32)cc1` displayed a melting point of 203 to 209 °C. Turning to `Cc1nccn1CCNC(=O)c1cccc2oc(-c3ccccc3)nc12`, the melting point was in the range of 125 to 127 °C. For `Cc1nccn1CC1CCc2c(c3ccccc3n2C)/C1=N/OC(=O)c1cccc(C#N)c1` (stereo not drawn) the value was 160 to 166 °C; for `Cn1cc(C2=C(C3CCCCC3)C(=O)NC2=O)c2ccccc21`, 224 to 225 °C; for `CC(C)[C@H](NC(=O)CC[C@H](C)CNC(=O)Cc1ccccc1)[C@@H](O)c1c(-c2ccccc2)c1=O`, 152 to 154 °C.

Take `Cn1ncnc1COc1nn2c(-c3ccco3)nncc2c1-c1ccccc1F`: the melting point lay within 204 to 206 °C.

For `CC(C)C(NC(=O)Cn1cccc(NC(=O)CCc2ccccc2)c1=O)C(=O)C(F)(F)F` (stereo not drawn), the melting point fell in the range of 154 to 155 °C. The result for `CCNC(=O)c1ccc(N2CCN(Cc3ccc4c(c3)NC(=O)C(C)O4)CC2)cc1` (stereo not drawn) reads 250 to 256 °C; that for `COC(=O)c1ccc(Oc2nn(Cc3ccccc3)c3ccccc23)o1`, 89 to 91 °C.

In turn, `CC(=O)Nc1cc(F)ccc1S(=O)(=O)CC#N` showed a melting point of 131 to 132 °C. `CCOc1cc(OCc2cn(-c3ccc(C(F)(F)F)cn3)nc2C)ccc1CCC(=O)O` registered a melting point of 151 to 152 °C.

In turn, `COc1ccc(-c2ccc3c(C)c(OC)ccc3c2)cc1` displayed a melting point of 136 to 138 °C.

In turn, `O=C(O)Cc1ccc(Br)cc1F` gave a melting point of 121 to 122 °C. The result for `CCCc1c(OCCCCCCc2cccc(CCCCCC(=O)O)c2CCC(=O)O)ccc2c1OCCC2=O` reads 109 to 110 °C. `COCCNC(=O)c1ccc(NS(=O)(=O)c2ccc(F)cc2)cn1` had a melting point of 154 °C.

In the case of `CC(O)=C(C#N)C(=O)Nc1ccc(Br)cc1Br`, the melting point was found to be 181 °C. Compound `COc1nc(Cl)cnc1NS(=O)(=O)c1cccc(F)c1Cl` displayed a melting point of 159 to 160 °C. The compound `CCN1CCN(CC(=O)NC2(c3cc4ccccc4o3)C(=O)Nc3cc(Cl)cc(Cl)c32)CC1` (single isomer, unassigned; (+)) registered a melting point of 192 to 196 °C. For `c1cc(-c2ccoc2)cc(-n2cnc3cc(-c4ccoc4)ccc32)c1` the value was 149 to 150 °C. The result for `Fc1ccc(-c2ccco2)cc1` reads 84 to 86 °C. Regarding `Cn1c(C=Cc2ccccc2)cnc1[N+](=O)[O-]`, the melting point is 170 to 180 °C. The result for `O=C(c1cccs1)c1cnn2c(-c3cccc(NC(=O)C4CC4)c3)ccnc12` reads 191 to 192 °C. Take `c1ccc(N(c2ccccc2)c2ccc(-c3ccc(-c4ccnc(CNc5ccc6ccccc6c5)n4)cc3)cc2)cc1`: the melting point lay within 204 to 205 °C. The result for `Cc1cc(N2CN=C(C(F)(F)F)O2)cc(C)c1OCCCc1ccc(C(C)(F)F)nn1` reads 54.5 °C; that for `CCOC(=O)n1c(SCc2nccc(SCCN3CCOCC3)c2C)nc2ccccc21`, 145 to 147 °C. The result for `O=C(CNCc1cccc(-c2ccc(CC(Nc3ccccc3C(=O)c3ccccc3)C(=O)O)cc2)c1)c1ccccc1` (stereo not drawn) reads 90 °C. The result for `Cc1ccc([C@H]2CCCN2[S@@](=O)C(C)(C)C)cc1` reads 62 to 64 °C; that for `Cn1ncnc1COc1nn2c(-c3ccccc3F)nncc2c1-c1cccc(-c2cccnc2)c1`, 157 to 163 °C.

Consider `O=C(O)Cc1cnc2c(NC(=O)c3c(Cl)cccc3Cl)cccc2c1`, for which the melting point is more than 250 °C.

`CCOC(=O)C(CC)Cc1ccc(NC(=O)c2ccc(Cl)cc2)cc1` (stereo not drawn): the melting point was in the range of 119 to 120 °C. The result for `O=C(O)CC(CSc1nc2ccccc2[nH]1)C(=O)O` (stereo not drawn) reads 165 to 168 °C; that for `N#Cc1cc([N+](=O)[O-])ccc1-c1ccccc1`, 111 to 115 °C; that for `CC1(C(=O)NN)C(=O)Nc2cc3[nH]c(-c4ccncc4)nc3cc21` (stereo not drawn), more than 300 °C. The result for `CN(C)C=CC(=O)c1ccc(C(=O)N2Cc3ccnn3Cc3ccccc32)cc1` reads 225 to 230 °C; that for `CC(=O)Nc1ccc(OCCCCO[N+](=O)[O-])cc1`, 92 to 98 °C. For `CCOCc1nc2c(N)nc(C)c(C)c2n1CCOCc1ccncc1`, the melting point was in the range of 143 to 145 °C.

The compound `CCc1nc2c(N)nc3ccc(-c4cccnc4)cc3c2n1CC(C)C` returned a melting point of more than 250 °C. `CC1(C)Oc2ccc(S(=O)(=O)C(F)(F)C(F)(F)C(F)(F)F)cc2[C@@H](N2Cc3ccccc3C2=O)[C@@H]1O` (relative stereo) showed a melting point of 241 to 249 °C.

As to `COC(=O)c1oc(C(C)(C)C)cc1NC(=O)Nc1ccc(C)cc1`, the melting point lay within 78 to 79 °C. Compound `COC(=O)c1c(C)c(N=O)c2ccccn12` displayed a melting point of 131 to 132 °C.

Compound `Cc1cccc2c(/C=C/C(=O)O)cc(C(C)C)c(O)c12` displayed a melting point of 122 to 123 °C. The result for `O=C(O)C(O)(c1ccc(F)cc1)c1ccc(F)cc1` reads 133 to 136 °C; that for `CCCCCCCCOc1ccc(-c2ncc(-c3ccc(CCCCCCCC)cc3)cn2)c(F)c1`, 75 °C.
